From US20230150997A1, “EIF4E INHIBITORS AND USES THEREOF” (PIC Therapeutics, Inc., priority 2021, published 2023)
pIC50: −log10 of the molar value.

Molecular target: T1, Human eIF4E (Homo sapiens, UniProt P06730)
T1 construct: Human eIF4E (aa 28-217) with a C-terminal His-tag; made in house
Assay: Human eIF4E/4G2 binding assay (TR-FRET)
Settings: purified human eIF4E (aa 28-217), biotin labeled 4G2 peptide, 4 hours preincubation at room temperature
Experimental: Example 3. Compound Testing in Human eIF4E/4G2 Binding Assay
Human eIF4E (aa 28-217) with a C-terminal His-tag was expressed in E. coli in inclusion bodies. The protein was solubilized with 8 M urea and purified under denaturing conditions using nickel-charged HisTrap HP columns (GE Healthcare). The purified protein was then refolded by diluting in 20 mM Hepes pH 7.0, 0.5 M NaCl, 1 mM DTT, 1 mM EDTA, 0.5 M arginine plus 6 M urea, and then dialyzing overnight into the same buffer without the urea. The protein was further dialyzed into 20 mM Hepes, pH 6.5, 50 mM NaCl, 1 mM EDTA, 1 mM DTT, and concentrated using Hitrap SP sepharose FF columns (GE Healthcare). The concentrated protein was dialyzed into 20 mM Hepes, pH 7.0, 0.5 M NaCl, 5 mM DTT and 10% glycerol, and stored at -80° C. until use.
Test compounds (3.43 mM stock in DMSO) were diluted 2-fold in series in DMSO (10 concentration points). Compound solutions (1.2 µl/well) were added into black 384-well polypropylene microplates (Matrix, Thermal Scientific). Twenty-two microliters per well of Assay Buffer (50 mM NaPi, pH 6.5, 50 mM KCl, 1 mM DTT and 0.5 mg/ml gamma globulin) and eight microliters per well of 82.5 nM purified eIF4E in Assay Buffer were added. The samples were incubated at room temperature (20-23° C.) for 4 hours. Biotin labeled 4G2 peptide (Ac-Lys-Gln-Tyr-Asp-Arg-Glu-Phe-Leu-Leu-Asp-Phe-Gln-Phe-Met-Pro-Lys(Aha-Bio)-NH2, 1.75 µM stock in DMSO) was diluted to 0.14 µM in Assay Buffer (without DTT) and 5 µl/well was added. The samples were incubated at room temperature for 20 min. Five microliters per well of 6.4 nM Eu-streptavidin (Eu-SA, Perkin Elmer) and 80 nM Allophycocyanin (APC)-anti His antibody (Columbia Biosciences) in Assay Buffer (without DTT) were then added and the samples were incubated at room temperature for 20 min.
Assay signals were monitored by reading excitation at 340 nm and emission fluorescence at 615 nm and 665 nm on an Envision reader (Perkin Elmer). Normalized TR-FRET (time-resolved fluorescence resonance energy transfer) assay signal (Rn) was calculated by the formula: Rn = [(A-Ba-C x D)/(D-Bd)] x (Dc- Bd) • Where A is the fluorescence intensity of the sample at 665 nm, • D is the fluorescence intensity of the sample at 615 nm, • Ba and Bd are plate backgrounds at 665 nm and 615 nm, respectively, • Dc is the fluorescence intensity of 0.78 nM Eu-SA in the assay buffer at 615 nm • The cross-talk factor (C) is determined by the following formula: • C = (Ac- Ba)/(Dc-Bd) • Where Ac is the fluorescence intensity of 0.78 nM Eu-SA in the assay buffer at 665 nm.
IC50 values were calculated using xLFit program (IDBS). Table 2 below lists […] of some compounds, wherein A represents IC50 ≤ 0.5 µM; B represents 0.5 uM < IC50 ≤ 1 µM; and C represents IC50 > 1 µM.

T1 sequence (P06730 28-217): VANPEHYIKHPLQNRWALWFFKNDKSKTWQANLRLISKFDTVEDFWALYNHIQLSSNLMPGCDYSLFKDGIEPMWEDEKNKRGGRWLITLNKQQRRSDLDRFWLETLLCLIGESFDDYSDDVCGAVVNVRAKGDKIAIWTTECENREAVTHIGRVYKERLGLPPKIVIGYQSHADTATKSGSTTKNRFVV

SMILES	pIC50
COCCOc1ccc(-c2nc(Nc3ncc(-c4ccc(C)s4)cc3C(=O)O)sc2CC(C)C)cc1Cl [I-43]	≥ 6.30
COc1cc(-c2nc(Nc3ncc(-c4cccs4)cc3C(=O)O)sc2CC(C)C)ccc1F [I-73]	6.00 to 6.30
COCCOc1ccc(-c2nc(Nc3ncc(-c4ccsc4)cc3C(=O)O)sc2CC(C)C)cc1F [I-55]	6.00 to 6.30
CC(C)Cc1sc(Nc2ncc(-c3cccs3)cc2C(=O)O)nc1-c1ccc(OC(F)(F)F)c(F)c1 [I-10]	≥ 6.30
COc1ccc(-c2nc(Nc3cc(-c4ccccc4)sc3C(=O)O)sc2C2CC2)cc1 [I-21]	6.00 to 6.30
COc1c(Cl)cc(-c2nc(Nc3ncc(-c4cccs4)cc3C(=O)O)sc2CC(C)C)cc1Cl [I-4]	≥ 6.30
COCCOc1ccc(-c2nc(Nc3ncc(-c4cccs4)cc3C(=O)O)sc2CC(C)(C)C)cc1F [I-65]	≥ 6.30
CC(C)Cc1sc(Nc2ncc(-c3cccs3)cc2C(=O)O)nc1-c1ccc(OC2CC2)cc1 [I-8]	≥ 6.30
COCCOc1ccc(-c2nc(Nc3ncc(-c4cccs4)cc3C(=O)O)sc2CCC(C)C)cc1F [I-46]	≥ 6.30
COCCOc1ccc(-c2nc(Nc3ncc(-c4nccs4)cc3C(=O)O)sc2CC(C)C)cc1F [I-51]	≥ 6.30
COCCOc1ccc(-c2nc(Nc3ncc(-c4cc(C)cs4)cc3C(=O)O)sc2CC(C)C)cc1 [1-35]	≥ 6.30
COc1ccc(-c2nc(Nc3ncc(-c4cccs4)cc3C(=O)O)sc2C2CC2)cc1F [I-28]	6.00 to 6.30
COc1ccc(-c2nc(Nc3cnc(-c4cccs4)cc3C(=O)O)sc2CC(C)C)cc1F [I-71]	6.00 to 6.30
CCOc1cccc(-c2nc(Nc3ncc(-c4cccs4)cc3C(=O)O)sc2CC(C)C)c1 [I-79]	≥ 6.30
COCCOc1ccc(-c2nc(Nc3ncc(-c4ccc(C)s4)cc3C(=O)O)sc2C2CCCC2)cc1 [I-37]	≥ 6.30
COc1ccc(-c2nc(Nc3cc(-c4ccccc4)sc3C(=O)O)sc2C2CC2)c(F)c1 [I-25]	6.00 to 6.30
COc1ccc(-c2nc(Nc3ncc(-c4cccs4)nc3C(=O)O)sc2CC(C)C)cc1F [I-60, 3-((4-(3-fluoro-4-methoxyphenyl)-5-isobutylthiazol-2-yl)amino)-6-(thiophen-2-yl)pyrazine-2-carboxylic acid]	≥ 6.30
COCCOc1ccc(-c2nc(Nc3ncc(-c4cccs4)cc3C(=O)O)sc2CC(C)C)cc1 [I-16]	≥ 6.30
CCOc1cc(-c2nc(Nc3ncc(-c4cccs4)cc3C(=O)O)sc2CC(C)C)ccc1F [I-81]	≥ 6.30
CC(C)Cc1sc(Nc2ncc(-c3cccs3)cc2C(=O)O)nc1-c1ccc(O)cc1 [I-13]	< 6.00
COCCOc1ccc(-c2nc(Nc3cc(-c4ccccc4)sc3C(=O)O)sc2CC(C)C)cc1 [I-23]	6.00 to 6.30

SMILES	pIC50
CC(C)Cc1sc(Nc2ncc(-c3cccs3)cc2C(=O)O)nc1-c1ccc(F)c(OC(C)C)c1 [I-86]	≥ 6.30
CCOc1cc(-c2nc(Nc3ncc(-c4cccs4)cc3C(=O)O)sc2CC(C)C)ccc1Cl [I-80]	≥ 6.30
CC(C)Cc1sc(Nc2ncc(-c3cccs3)cc2C(=O)O)nc1-c1ccc(OC(F)(F)F)c(Cl)c1 [I-9]	≥ 6.30
COCCOc1ccc(-c2nc(Nc3ncc(-c4cc(C)cs4)cc3C(=O)O)sc2CC(C)C)cc1Cl [I-44]	≥ 6.30
COCCOc1cc(-c2nc(Nc3ncc(-c4cccs4)cc3C(=O)O)sc2CC(C)C)ccc1C(F)(F)F [I-76, 2-((5-isobutyl-4-(3-(2-methoxyethoxy)-4-(trifluoromethyl)phenyl)thiazol-2-yl)amino)-5-(thiophen-2-yl)nicotinic acid]	≥ 6.30
COc1ccc(-c2nc(Nc3ncc(-c4cccs4)cc3C(=O)O)sc2C2CC2)cc1 [I-18]	6.00 to 6.30
O=C(O)c1sc(-c2ccccc2)cc1Nc1nc(-c2ccc(O)cc2)c(C2CC2)s1 [I-24]	< 6.00
COCCOCCOc1ccc(-c2nc(Nc3ncc(-c4cccs4)cc3C(=O)O)sc2CC(C)C)cc1F [I-68]	6.00 to 6.30
Cc1csc(-c2cnc(Nc3nc(-c4ccc(OC(F)F)cc4)c(C4CCCC4)s3)c(C(=O)O)c2)c1 [1-39]	≥ 6.30
COCCOc1ccc(-c2nc(Nc3ncc(-c4cccs4)cc3C(=O)O)sc2C2CC2)cc1 [I-22]	6.00 to 6.30
COCCOc1ccc(-c2nc(Nc3cc(-c4ccccc4)sc3C(=O)O)sc2C2CC2)cc1 [I-20]	6.00 to 6.30
COc1cc(-c2nc(Nc3ncc(-c4cccs4)cc3C(=O)O)sc2CCC(C)C)ccc1F [I-82]	≥ 6.30
COCCOc1ccc(-c2nc(Nc3ncc(-c4ccc(C)s4)cc3C(=O)O)sc2CC(C)C)cc1F [I-41]	≥ 6.30
COCCCOc1ccc(-c2nc(Nc3ncc(-c4cccs4)cc3C(=O)O)sc2CC(C)C)cc1Cl [I-48]	≥ 6.30
CCCc1sc(Nc2ncc(-c3cccs3)cc2C(=O)O)nc1-c1ccc(OCCOC)c(F)c1 [I-49]	6.00 to 6.30
COc1ccc(-c2nc(Nc3ncc(-c4cccs4)nc3C(=O)O)sc2CCC(C)C)cc1Cl [I-61]	≥ 6.30
COCCOc1ccc(-c2nc(Nc3ncc(-c4cccs4)cc3C(=O)O)sc2CCC(C)C)cc1Cl [I-45]	≥ 6.30
COCCOc1ccc(-c2nc(Nc3ncc(-c4cccs4)cc3C(=O)O)sc2C2CC2)c(F)c1 [I-26]	< 6.00
COCCOc1cc(-c2nc(Nc3ncc(-c4cccs4)cc3C(=O)O)sc2CCC(C)C)ccc1Cl [I-83]	≥ 6.30
COCCOc1ccc(-c2nc(Nc3ncc(-c4cccs4)cc3C(=O)O)sc2CC2CCCCC2)cc1F [I-72]	≥ 6.30
CC(C)Cc1sc(Nc2ncc(-c3cccs3)cc2C(=O)O)nc1-c1ccc(OCCOC(C)C)c(F)c1 [I-67]	≥ 6.30

Continued, values first:

pIC50	SMILES
≥ 6.30	COc1cc(-c2nc(Nc3ncc(-c4cccs4)cc3C(=O)O)sc2CC(C)C)cc(C(F)(F)F)c1 [I-104, 2-((5-isobutyl-4-(3-methoxy-5-(trifluoromethyl)phenyl)thiazol-2-yl)amino)-5-(thiophen-2-yl)nicotinic acid]
≥ 6.30	CC(C)Cc1sc(Nc2ncc(-c3cccs3)cc2C(=O)O)nc1-c1ccsc1 [I-127]
≥ 6.30	COCCOc1cc(C)cc(-c2nc(Nc3ncc(-c4cccs4)cc3C(=O)O)sc2CC(C)C)c1 [I-118]
≥ 6.30	COc1cc(C)cc(-c2nc(Nc3ncc(-c4cccs4)cc3C(=O)O)sc2CC(C)C)c1 [I-109]
≥ 6.30	CCCOc1cccc(-c2nc(Nc3ncc(-c4cccs4)cc3C(=O)O)sc2CC(C)C)c1 [I-106]
≥ 6.30	COc1cc(-c2nc(Nc3ncc(-c4cccs4)cc3C(=O)O)sc2CCC(C)C)ccc1C [I-108]
≥ 6.30	CC(C)Cc1sc(Nc2ncc(-c3cccs3)cc2C(=O)O)nc1-c1cccc(Oc2ccccc2)c1 [I-129, 2-((5-isobutyl-4-(3-phenoxyphenyl)thiazol-2-yl)amino)-5-(thiophen-2-yl)nicotinic acid]
≥ 6.30	CCOc1cccc(-c2nc(Nc3ncc(-c4ccco4)cc3C(=O)O)sc2CC(C)C)c1 [I-115]
≥ 6.30	CC(C)COc1cc(-c2nc(Nc3ncc(-c4cccs4)cc3C(=O)O)sc2CC(C)(C)C)ccc1F [I-96]
≥ 6.30	COc1cc(-c2nc(Nc3ncc(-c4cccs4)cc3C(=O)O)sc2CC(C)(C)C)ccc1F [I-91]
≥ 6.30	CC(C)Cc1sc(Nc2ncc(-c3cccs3)cc2C(=O)O)nc1-c1ccc(F)c(OCCOC(C)C)c1 [I-87]
≥ 6.30	CC(C)Cc1sc(Nc2ncc(-c3cccs3)cc2C(=O)O)nc1-c1cccc(OCCF)c1 [I-103]
≥ 6.30	CCc1cccc(-c2nc(Nc3ncc(-c4cccs4)cc3C(=O)O)sc2CC(C)C)c1 [I-123]
6.00 to 6.30	CC(C)Cc1sc(Nc2ncc(-c3cccs3)cc2C(=O)O)nc1-c1cccc(O)c1 [I-111]
≥ 6.30	CCOc1cc(-c2nc(Nc3ncc(-c4cccs4)cc3C(=O)O)sc2CC(C)(C)C)ccc1F [I-92]
≥ 6.30	Cc1ccc(-c2nc(Nc3ncc(-c4cccs4)cc3C(=O)O)sc2CC(C)C)s1 [I-141]
≥ 6.30	CCc1ccc(-c2nc(Nc3ncc(-c4cccs4)cc3C(=O)O)sc2CC(C)C)cc1OC [I-110]
≥ 6.30	CCOc1cc(-c2nc(Nc3ncc(-c4cccs4)cc3C(=O)O)sc2CC(C)(C)C)ccc1Cl [I-93]
